Measured values reported in ChEMBL document CHEMBL1158407, “Synthesis of conjugated spermine derivatives with 7-nitrobenzoxadiazole (NBD), rhodamine and bodipy as new fluorescent probes for the polyamine transport system” (2009).
Activity calls are given as the source filed them. The rule behind the calls is not given here.

Test system: not listed separately
Experiment: Cellular uptake in human NAMALWA cells assessed as fluorescence intensity at 1 uM after 2 hrs by FACS analysis relative to control
Assay type: functional, cell-based
Settings: NAMALVA
With `NCCCNCCCCNCCCNC(=S)Nc1ccc(-c2c3ccc(=O)cc-3oc3cc(O)ccc23)c(C(=O)O)c1` the Flu intensity was 7.9.
Work on `CCN(CC)c1ccc2c(-c3cccc(NC(=S)NCCCNCCCCNCCCN)c3C(=O)[O-])c3ccc(=[N+](CC)CC)cc-3oc2c1` yielded a Flu intensity of 15.
`NCCCNCCCCNCCCNCC(=O)N1CCN(c2ccc([N+](=O)[O-])c3nonc23)CC1` gave a Flu intensity of 2.9.
For `CCN(CC)c1ccc2c(-c3ccc(S(=O)(=O)NCCCNCCCCNCCCN)cc3S(=O)(=O)[O-])c3ccc(=[N+](CC)CC)cc-3oc2c1`, the Flu intensity was 2.9.
With `CNc1ccc([N+](=O)[O-])c2nonc12` the Flu intensity was 0.5.
Compound `NCCCNCCCCN(CCCN)C(=S)Nc1ccc(-c2c3ccc(=O)cc-3oc3cc(O)ccc23)c(C(=O)O)c1` has a Flu intensity of 8.1.
`NCCCNCCCCNCCCNc1ccc([N+](=O)[O-])c2nonc12` gave a Flu intensity of 65.
`O=[N+]([O-])c1ccc(N2CCNCC2)c2nonc12` gave a Flu intensity of 1.1.
Compound `CCN(CC)c1ccc2c(-c3ccc(S(=O)(=O)[O-])cc3S(=O)(=O)NCCCNCCCCNCCCN)c3ccc(=[N+](CC)CC)cc-3oc2c1` has a Flu intensity of 1.3.
Compound `CCC1=C(C)/C(=C(\c2ccc(NC(=O)CNCCCNCCCCNCCCN)cc2)c2c(C)c(CC)c(C)n2B(F)F)N=C1C` has a Flu intensity of 839.
For `CCC1=C(C)/C(=C(\c2ccc([N+](=O)[O-])cc2)c2c(C)c(CC)c(C)n2B(F)F)N=C1C`, the Flu intensity was 1390.
With `O=[N+]([O-])c1ccc(NCCCNCCCCNCCCNc2ccc([N+](=O)[O-])c3nonc23)c2nonc12` the Flu intensity was 627.
Compound `CN(CCCNCCCCNCCCN)c1ccc([N+](=O)[O-])c2nonc12` has a Flu intensity of 56.
`CN(C)S(=O)(=O)c1ccc(N2CCN(C(=O)CNCCCNCCCCNCCCN)CC2)c2nonc12` showed a Flu intensity of 0.
In the case of `CCC1=C(C)/C(=C(\c2ccc(N)cc2)c2c(C)c(CC)c(C)n2B(F)F)N=C1C`, the Flu intensity is reported as 3180.
With `CN(C)S(=O)(=O)c1ccc(NCCCNCCCCNCCCN)c2nonc12` the Flu intensity was 0.
In the case of `NCCCNCCCCNCCCNc1ccc(N)c2nonc12`, the Flu intensity is reported as 0.

Test system: not listed separately
Experiment: Cellular uptake in F14512 co-cultured human NAMALWA cells assessed as decrease in fluorescence at 0.1 uM after 2 hrs by FACS analysis relative to control
Assay type: functional, cell-based
Set-up: scale not given: the % may be the effect or the level left
Settings: NAMALVA
For `NCCCNCCCCNCCCNC(=S)Nc1ccc(-c2c3ccc(=O)cc-3oc3cc(O)ccc23)c(C(=O)O)c1`, the Activity was “inactive”.
For `CCN(CC)c1ccc2c(-c3cccc(NC(=S)NCCCNCCCCNCCCN)c3C(=O)[O-])c3ccc(=[N+](CC)CC)cc-3oc2c1`, the Activity was “inactive”.
In the case of `NCCCNCCCCNCCCNCC(=O)N1CCN(c2ccc([N+](=O)[O-])c3nonc23)CC1`, the Activity is reported as “inactive”.
In the case of `CCN(CC)c1ccc2c(-c3ccc(NC(=S)NCCCNCCCCNCCCN)cc3C(=O)[O-])c3ccc(=[N+](CC)CC)cc-3oc2c1`, the Activity is reported as “inactive”.
For `CCN(CC)c1ccc2c(-c3ccc(S(=O)(=O)NCCCNCCCCNCCCN)cc3S(=O)(=O)[O-])c3ccc(=[N+](CC)CC)cc-3oc2c1`, the Activity was “inactive”.
For `CNc1ccc([N+](=O)[O-])c2nonc12`, the Activity was “inactive”.
With `NCCCNCCCCN(CCCN)C(=S)Nc1ccc(-c2c3ccc(=O)cc-3oc3cc(O)ccc23)c(C(=O)O)c1` the Activity was “inactive”.
In the case of `NCCCNCCCCNCCCNc1ccc([N+](=O)[O-])c2nonc12`, the Activity is reported as greater than 70%.
With `O=[N+]([O-])c1ccc(N2CCNCC2)c2nonc12` the Activity was “inactive”.
With `CCN(CC)c1ccc2c(-c3ccc(S(=O)(=O)[O-])cc3S(=O)(=O)NCCCNCCCCNCCCN)c3ccc(=[N+](CC)CC)cc-3oc2c1` the Activity was “inactive”.
In the case of `CCC1=C(C)/C(=C(\c2ccc(NC(=O)CNCCCNCCCCNCCCN)cc2)c2c(C)c(CC)c(C)n2B(F)F)N=C1C`, the Activity is reported as 50%.
For `CCC1=C(C)/C(=C(\c2ccc([N+](=O)[O-])cc2)c2c(C)c(CC)c(C)n2B(F)F)N=C1C`, the Activity was 50%.
In the case of `O=[N+]([O-])c1ccc(NCCCNCCCCNCCCNc2ccc([N+](=O)[O-])c3nonc23)c2nonc12`, the Activity is reported as “inactive”.
`CN(CCCNCCCCNCCCN)c1ccc([N+](=O)[O-])c2nonc12` showed an Activity greater than 70%.
In the case of `CN(C)S(=O)(=O)c1ccc(N2CCN(C(=O)CNCCCNCCCCNCCCN)CC2)c2nonc12`, the Activity is reported as “inactive”.
`CCC1=C(C)/C(=C(\c2ccc(N)cc2)c2c(C)c(CC)c(C)n2B(F)F)N=C1C` gave an Activity of 50%.
In the case of `CN(C)S(=O)(=O)c1ccc(NCCCNCCCCNCCCN)c2nonc12`, the Activity is reported as “inactive”.
With `NCCCNCCCCNCCCNc1ccc(N)c2nonc12` the Activity was “inactive”.

Test system: CHO-MG
Experiment: Differential fluorescence intensity index, ratio of cellular uptake in Chinese hamster CHO cells expressing PTS to cellular uptake in PTS deficient […] CHO-MG cells at 1 uM after 2 hrs by microscopy and FACS analysis
Assay type: functional, Cricetulus griseus
Settings: not given
For `NCCCNCCCCNCCCNc1ccc([N+](=O)[O-])c2nonc12`, the “fold change (FC)” value was 10.
With `CN(CCCNCCCCNCCCN)c1ccc([N+](=O)[O-])c2nonc12` the “fold change (FC)” value was 10.

Same assay, conditions: Cricetulus griseus
In the case of `CNc1ccc([N+](=O)[O-])c2nonc12`, the “fold change (FC)” value is reported as “inactive”.
For `CCC1=C(C)/C(=C(\c2ccc(NC(=O)CNCCCNCCCCNCCCN)cc2)c2c(C)c(CC)c(C)n2B(F)F)N=C1C`, the “fold change (FC)” value was “inactive”.
In the case of `O=[N+]([O-])c1ccc(NCCCNCCCCNCCCNc2ccc([N+](=O)[O-])c3nonc23)c2nonc12`, the “fold change (FC)” value is reported as “inactive”.
With `NCCCCNc1ccc([N+](=O)[O-])c2nonc12` the “fold change (FC)” value was “inactive”.
